Reference: patent US8247211B2, “Glycopeptide antibiotics” (American Cyanamid Company, priority 2001, dated 2012)
≈ marks a conversion by molar mass, not a printed value.

Assays:
Experiment in all cases: In vitro antibacterial evaluation: minimum inhibitory concentration (MIC), broth dilution method
Assay type in all cases: cell-based
[1] = system: Enterococcus sp.; conditions: 18 hours at 35° C.
In short: (§1)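 Values are minimum inhibitory concentrations, meaning the smallest antibiotic concentration that stops growth of the organism. They come from broth dilution in Muller-Hinton II […] per NCCLS guidance (M7-A2), using 5×10^5 CFU/mL and concentrations from 64 to 0.06 μg/mL.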

[2] = system: Escherichia coli; conditions: Escherichia coli (GC 4560); 18 hours at 35° C.
In short: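 NCCLS M7-A2 broth dilution with Mueller-Hinton II, testing 64-0.06 μg/mL antibiotic against 5×10^5 CFU/mL inocula. Test strains include recent methicillin-, penicillin- or vancomycin-resistant clinical isolates. MIC is the lowest concentration preventing growth.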

[3] = system: Staphylococcus sp.
In short: as §1

[4] = system: Streptococcus sp.; conditions: 18 hours at 35° C.
In short: as §1

[5] = broth dilution, inoculum 5×10^5 CFU/mL

MIC Enterococcus avium (GC 4558) ([1]; Enterococcus avium (GC 4558)): 16 µg/mL (≈ 11.5 µM)
MIC Enterococcus faecalis (ATCC 29212) ([1]; Enterococcus faecalis (ATCC 29212)): 16 µg/mL (≈ 11.5 µM)
MIC Enterococcus faecalis (GC 2242) ([1]; Enterococcus faecalis (GC 2242)): 16 µg/mL (≈ 11.5 µM)
MIC Enterococcus faecalis (GC 2691) ([1]; Enterococcus faecalis (GC 2691)): 16 µg/mL (≈ 11.5 µM)
MIC Enterococcus faecalis (GC 3059) ([1]; Enterococcus faecalis (GC 3059)): 16 µg/mL (≈ 11.5 µM)
MIC Enterococcus faecalis (GC 4552) ([1]; Enterococcus faecalis (GC 4552)): 16 µg/mL (≈ 11.5 µM)
MIC Enterococcus faecalis (GC 4553) ([1]; Enterococcus faecalis (GC 4553)): 16 µg/mL (≈ 11.5 µM)
MIC Enterococcus faecalis (GC 4554) ([1]; Enterococcus faecalis (GC 4554)): 16 µg/mL (≈ 11.5 µM)
MIC Enterococcus faecalis (GC 6189) ([1]; Enterococcus faecalis (GC 6189)): 16 µg/mL (≈ 11.5 µM)
MIC Enterococcus faecium (GC 2243) ([1]; Enterococcus faecium (GC 2243)): 16 µg/mL (≈ 11.5 µM)
MIC Enterococcus faecium (GC 4556) ([1]; Enterococcus faecium (GC 4556)): 16 µg/mL (≈ 11.5 µM)
MIC Enterococcus faecium (GC 4557) ([1]; Enterococcus faecium (GC 4557)): 8 µg/mL (≈ 5.76 µM)
MIC Enterococcus avium (GC 4558) [1, 5]: 16 µg/mL (≈ 11.5 µM)
MIC Enterococcus faecalis (ATCC 29212) [1, 5]: 16 µg/mL (≈ 11.5 µM)
MIC Enterococcus faecalis (GC 2242) [1, 5]: 16 µg/mL (≈ 11.5 µM)
MIC Enterococcus faecalis (GC 2691) [1, 5]: 16 µg/mL (≈ 11.5 µM)
MIC Enterococcus faecalis (GC 3059) [1, 5]: 16 µg/mL (≈ 11.5 µM)
MIC Enterococcus faecalis (GC 4552) [1, 5]: 16 µg/mL (≈ 11.5 µM)
MIC Enterococcus faecalis (GC 4553) [1, 5]: 16 µg/mL (≈ 11.5 µM)
MIC Enterococcus faecalis (GC 4554) [1, 5]: 16 µg/mL (≈ 11.5 µM)
MIC Enterococcus faecalis (GC 6189) [1, 5]: 16 µg/mL (≈ 11.5 µM)
MIC Enterococcus faecium (GC 2243) [1, 5]: 16 µg/mL (≈ 11.5 µM)
MIC Enterococcus faecium (GC 4556) [1, 5]: 16 µg/mL (≈ 11.5 µM)
MIC Enterococcus faecium (GC 4557) [1, 5]: 8 µg/mL (≈ 5.76 µM)
MIC Escherichia coli (GC 4560) [2]: 4 µg/mL (≈ 2.88 µM)
MIC Staphylococcus aureus (ATCC 29213) ([3]; strain ATCC 29213): 4 µg/mL (≈ 2.88 µM)
MIC Staphylococcus aureus (GC 1131) ([3]; strain GC 1131): 8 µg/mL (≈ 5.76 µM)
MIC Staphylococcus aureus (GC 3051) ([3]; strain GC 3051): 4 µg/mL (≈ 2.88 µM)
MIC Staphylococcus aureus (GC 3053) ([3]; strain GC 3053): 8 µg/mL (≈ 5.76 µM)
MIC Staphylococcus aureus (GC 4541) ([3]; strain GC 4541): 4 µg/mL (≈ 2.88 µM)
MIC Staphylococcus aureus (GC 4542) ([3]; strain GC 4542): 4 µg/mL (≈ 2.88 µM)
MIC Staphylococcus aureus-SMITH (GC 4543) ([3]; strain GC 4543): 4 µg/mL (≈ 2.88 µM)
MIC Staphylococcus aureus (GC 4544) ([3]; strain GC 4544): 8 µg/mL (≈ 5.76 µM)
MIC Staphylococcus aureus (GC 4545) ([3]; strain GC 4545): 4 µg/mL (≈ 2.88 µM)
MIC Coagulase Negative Staphylococcus (GC 4547) ([3]; strain GC 4547): 4 µg/mL (≈ 2.88 µM)
MIC Coagulase Negative Staphylococcus (GC 4548) ([3]; strain GC 4548): 4 µg/mL (≈ 2.88 µM)
MIC Coagulase Negative Staphylococcus (GC 4549) ([3]; strain GC 4549): 2 µg/mL (≈ 1.44 µM)
MIC Coagulase Negative Staphylococcus (GC 4551) ([3]; strain GC 4551): 4 µg/mL (≈ 2.88 µM)
MIC Streptococcus agalactiae (GC 4564) ([4]; Streptococcus agalactiae (GC 4564)): 1 µg/mL (≈ 0.72 µM)
MIC Streptococcus pneumoniae (ATCC 6301) ([4]; Streptococcus pneumoniae (ATCC 6301)): 0.5 µg/mL (≈ 0.36 µM)
MIC Streptococcus pneumoniae (GC 1894) ([4]; Streptococcus pneumoniae (GC 1894)): 0.25 µg/mL (≈ 0.18 µM)
MIC Streptococcus pneumoniae (GC 4565) ([4]; Streptococcus pneumoniae (GC 4565)): 0.5 µg/mL (≈ 0.36 µM)
MIC Streptococcus pyogenes (GC 4563) ([4]; Streptococcus pyogenes (GC 4563)): 0.5 µg/mL (≈ 0.36 µM)
MIC Streptococcus agalactiae (GC 4564) [4, 5]: 1 µg/mL (≈ 0.72 µM)
MIC Streptococcus pneumoniae (ATCC 6301) [4, 5]: 0.5 µg/mL (≈ 0.36 µM)
MIC Streptococcus pneumoniae (GC 1894) [4, 5]: 0.25 µg/mL (≈ 0.18 µM)
MIC Streptococcus pneumoniae (GC 4565) [4, 5]: 0.5 µg/mL (≈ 0.36 µM)
MIC Streptococcus pyogenes (GC 4563) [4, 5]: 0.5 µg/mL (≈ 0.36 µM)
Compound: CC(c1ccccc1)C1NC(=O)CNC(=O)C(CO)NC(=O)C(C(O)C2CNC(=N)N2C2OC(CO)C(O)C(O)C2O)NC(=O)C(C(O)C2CNC(=N)N2)NC(=O)C(Cc2ccc(OC3OC(CO)C(OC4OC5COC6(CCCCC6C)OC5C(O)C4O)C(O)C3O)cc2)NC1=O (stereo not drawn) [Example 204, Cyclo[glycyl-β-methylphenylalanyl-O-[4-O-[4,6-O-(2-methylcyclohexylidene)hexopyranosyl]hexopyranosyl]tyrosyl-3-(2-iminoimidazolidin-4-yl)seryl-3-(3-hexopyranosyl-2-iminoimidazolidin-4-yl)serylseryl]]
MIC Staphylococcus haemolyticus (GC 4546) ([3]; strain GC 4546): 2 µg/mL (≈ 1.44 µM)
